Like-named read-outs stand apart in the source and are kept apart here.
Columns and labels:
[1] = tested on: panel of 100 tumor cell lines; experiment: OncoPanel cell proliferation profiling (nuclear dye relative cell count); assay type: cell-based; conditions: for IC50: across the panel of 100 cell lines
Protocol: (§1) In order to assess cellular phenotypes arising from eIF4E inhibition, Compound X was profiled in a panel of 100 tumor cell lines. Compound X was profiled using the OncoPanel Cell-Based Profiling Service (Eurofins Pharma Discovery Services, St. Charles, Mo.). Briefly, cell lines used in the panel were grown in RPMI 1640, 10% FBS, 2 mM L-alanyl-L-glutamine, 1 mM Na pyruvate, or a special medium. Cells were seeded into 384-well plates and incubated in a humidified atmosphere of 5% CO2 at 37° C. Compounds were added the day following cell seeding. At the same time, a time zero untreated cell plate was generated. After a 3-day incubation period, cells were fixed and stained with fluorescently-labeled antibodies and nuclear dye to allow imaging of nuclei, apoptotic cells and mitotic cells.
(§2) was serially diluted in half-log steps from 10 μM and assayed over 10 concentrations with a maximum assay concentration of 0.1% DMSO. Automated fluorescence microscopy was carried out using a Molecular Devices ImageXpress Micro XL high-content imager, and images were collected with a 4× objective. 16-bit TIFF images were acquired and analyzed with MetaXpress 5.1.0.41 software.
Cell proliferation was measured by the fluorescence intensity of an incorporated nuclear dye. The output is referred to as the relative cell count, where the measured nuclear intensity is transformed to percent of control (POC) using the following formula: […]
where Ix the nuclear intensity at concentration x, and I0 is the average nuclear intensity of the untreated vehicle wells.
Cellular response parameters were calculated using nonlinear regression to a sigmoidal single-site dose response model:
where y is a response measured at concentration x, A and B are the lower and upper limits of the response, C is the concentration at the response midpoint (EC50), and D is the Hill Slope (Fallahi-Sichani et al., 2013, Nat. Chem. Biol. 9:708-714).
Cell count IC50 is the test compound concentration at 50% of maximal possible response.

[2] = tested on: panel of 100 tumor cell lines; experiment: OncoPanel apoptosis profiling (activated caspase-3); assay type: cell-based
Protocol: as §1, §2
An antibody to activated caspase-3 was used to label cells from early to late stage apoptosis (Thornberry et al., 1998, Science 281:1312-1316). […] A 5-fold induction in the caspase-3 signal was scored as a significant apoptosis induction.

[3] = tested on: COLO 205 xenografts (BRAF mutant); experiment: In vivo tumor growth inhibition, COLO 205 xenografts; conditions: for tumor growth inhibition (TGI): COLO 205 xenografts
Protocol: To test whether eIF4E inhibition affected the growth of BRAF mutant tumors in vivo, COLO 205 cells were grown as tumor xenografts in athymic nude mice and animals were dosed daily with vehicle or Compound Y, having the following structure
(§3) Athymic nude mice were purchased from Simonsen Laboratories (Gilroy, Calif.). C.B-17 SCID mice were purchased from Charles River (Hollister, Calif.). All animal studies were carried out in accordance with the guidelines established by the Institutional Animal Care and Use Committee at Explora BioLabs (San Diego, Calif.). COLO 205 and RKO cells were purchased from ATCC (Manassas, Va.). COLO 205 cells were maintained in RPMI-1640 supplemented with 10% fetal bovine serum. RKO cells were maintained in DMEM supplemented with 10% fetal bovine serum. For COLO 205 xenograft studies, COLO 205 (2×10^6) cells were implanted subcutaneously into athymic nude mice. On day 8 post-implant, tumors were measured (˜103 mm^3) and tumor-bearing animals were randomized into treatment groups. For RKO xenograft studies, RKO cells (5×10^6) were implanted subcutaneously into C.B-17 SCID mice. On day 11 post-implant, tumors were measured (˜153 mm^3) and tumor-bearing animals were randomized into treatment groups. Animals were dosed orally with vehicle or Compound Y daily. Tumor size and body weight were monitored during the course of the study. Tumor size was measured in length and width with a caliper 2× per week. The tumor volume was calculated by the formula L×W×W/2 according to NCI standards.

[4] = tested on: RKO xenografts (BRAF mutant); experiment: In vivo tumor growth inhibition, RKO xenografts
Protocol: as §3

Compound: Cc1cc(-c2cc(Cl)ccc2OCCn2c(C)nc3cc(C(F)(F)F)c(CN4CCN(C)CC4)c(C#N)c3c2=O)c2scc(C(=O)O)c2n1 [Compound X]
- IC50 ([1]; 72 h, 3-day incubation, read-out: median IC50 value for cell proliferation): 116 nM
- IC50 ([1]; upper end printed as >10,000 nM, read-out: distribution of IC50 values for cell proliferation): 12 to 10000 nM
- cell lines tested with IC50 values below the median ([1]; hematological, head and neck, NSCLC, melanoma, uterine and pancreatic tumor cell lines): > 74%
- BRAF mutant cell lines among those with significant induction of apoptosis ([2]; of the 36 cell lines with >5-fold activated caspase-3): 10
- cell lines that showed significant induction of apoptosis (>5-fold induction of activated caspase-3) ([2]; of the panel of 100 cell lines): 36

Compound: Cc1cc(-c2cc(Cl)ccc2OCCn2c(C)nc3cc(C(F)(F)F)c(N4CCN(C)CC4)c(C#N)c3c2=O)c2scc(C(=O)O)c2n1 [Compound Y]
- tolerability (body weight) ([3]; COLO 205 study, no significant changes in body weight): well tolerated
- tumor growth inhibition (TGI) ([3]; 3 mg/kg orally daily): 49%
- tumor growth inhibition (TGI) ([3]; 30 mg/kg orally daily): 89%
- tolerability (body weight) ([4]; RKO study, no significant changes in body weight): well tolerated
- tumor growth inhibition (TGI) ([4]; RKO xenografts, 30 mg/kg orally daily): 54%
